The test system of one assay is A549/SN-38-4 cell line. Kind of assay: Effect of flavonoid in overcoming anticancer drug (SN-38) resistance of A549/SN-38 cell line. The following applies: concentration of flavonoid for 50% reduction of relative resistance value to SN-38, A549/SN-38-4, 48 hours; for EC50: Homo sapiens. It is filed as cell-based, human. As for the experimental part:
The A549 cell line or the A549/SN-38-4 cell line was suspended in 10% FBS/Ham's F-12, and the resultant suspension was inoculated into a 96-well microplate, followed by culturing at 5% CO2 and 37° C. overnight (2×10^3 cells/50 μL/well). Thereafter, a solution of a flavonoid and SN-38 in 10% FBS/Ham's F-12 (25 μL) was added to each of the wells, followed by culturing at 5% CO2 and 37° C. for 48 hours. After completion of culturing, the number of viable cells was counted by use of TetraColor ONE according to the attached instruction manual.

In the next assay the test system is MES-SA/Dx5 cell line. Kind of assay: Effect of flavonoid on multidrug (paclitaxel) resistance of MES-SA/Dx5 cell line. The following applies: concentration of flavonoid for 50% reduction of relative resistance value to paclitaxel, MES-SA/Dx5 (P-glycoprotein overexpression), 48 hours; for EC50: Homo sapiens, read-out: Resistance overcoming effect EC50. It is filed as cell-based, human. Here is the method:
Human uterine cancer MES-SA cell line or MES-SA/Dx5 cell line which had acquired multidrug resistance through overexpression of P-glycoprotein (Cancer Res. 45, 4091-4096 (1985)) was suspended in 10% FBS/DMEM, and the resultant suspension was inoculated into a 96-well microplate, followed by culturing at 5% CO2 and 37° C. overnight (3×10^3 cells/50 μL/well). Thereafter, a solution of a flavonoid and paclitaxel in 10% FBS/DMEM (25 μL) was added to each of the wells, followed by culturing at 5% CO2 and 37° C. for 48 hours. After completion of culturing, the number of viable cells was counted by use of TetraColor ONE according to the attached instruction manual.

≈ marks a conversion by molar mass, not a printed value.

The compound `COc1ccc(-c2cc(=O)c3c(OC)c(OC)c(OC)cc3o2)cc1OC` [Compound 1-25, 3′,4′,5,6,7-Pentamethoxyflavone] displayed an EC50 in the assay with A549/SN-38-4 cell line of 0.53 µg/mL (≈ 1.42 µM).
`COc1ccc(-c2oc3c(OC)c(OC)c(OC)c(OC)c3c(=O)c2OC)cc1OC` [Compound 1-24, 3,3′,4′,5,6,7,8-Heptamethoxyflavone] had an EC50 in the assay with A549/SN-38-4 cell line of 0.054 µg/mL (≈ 0.125 µM).
Take `CC(C)=CCc1c2c(c(O)c3c1OC(c1ccc(O)cc1)CC3=O)C=CC(C)(C)O2` (centres unmarked) [Compound 2-3, 2H,6H-Benzo[1,2-b:5,4-b′]dipyran-6-one,7,8-dihydro-5-hydroxy-8-(4-hydroxyphenyl)-2,2-dimethyl-10-(3-methyl-2-butenyl)]: in the assay with A549/SN-38-4 cell line, the “Resistance overcoming effect EC50” value stood at 0.067 µg/mL.
Take `COc1ccc(-c2cc(=O)c3c(O)c(OC)c(OC)cc3o2)cc1O` [Compound 1-6, 3′,5-Dihydroxy-4′,6,7-trimethoxyflavone]: the EC50 with A549/SN-38-4 cell line is 0.017 µg/mL (≈ 0.0494 µM); with MES-SA/Dx5 cell line it was above 1 µg/mL.
Regarding `Cc1ccc(-c2cc(=O)c3cc(Cl)cc(Cl)c3o2)cc1` [Compound 1-18, 6,8-Dichloro-4′-methylflavone], the EC50 with A549/SN-38-4 cell line was 0.14 µg/mL (≈ 0.459 µM); with MES-SA/Dx5 cell line, above 1 µg/mL.
On to `COc1ccc(-c2oc3ccccc3c(=O)c2OC)cc1` [Compound 1-17, 3,4′-Dimethoxyflavone], for which the EC50 in the assay on A549/SN-38-4 cell line was 0.06 µg/mL (≈ 0.213 µM); with MES-SA/Dx5 cell line, above 1 µg/mL.
For `COc1cc(-c2oc3cc(O)cc(O)c3c(=O)c2O)ccc1O` [Compound 1-11, 3,4′,5,7-Tetrahydroxy-3′-methoxyflavone], in that order: 0.16 µg/mL (≈ 0.506 µM) and above 1 µg/mL.
On to `O=c1cc(-c2ccc(O)cc2)oc2cc(O)cc(O)c12` [Compound 1-9, 4′,5,7-Trihydroxyflavone], for which the concentration for a half-maximal effect (EC50) in the assay on A549/SN-38-4 cell line is 0.12 µg/mL (≈ 0.444 µM); in the assay on MES-SA/Dx5 cell line, above 1 µg/mL.
For `COc1cc(N)c(-c2cc(=O)c3c(OC)c(OC)c(OC)c(OC)c3o2)cc1OC` [Compound 1-5, 2′-Amino-4′,5,5′,6,7,8-hexamethoxyflavone], the EC50 in the assay on A549/SN-38-4 cell line is 0.081 µg/mL (≈ 0.194 µM); with MES-SA/Dx5 cell line it was above 1 µg/mL.
As to `COc1cc2oc(-c3ccc(OC4O[C@H](CO)[C@@H](O)[C@H](O)[C@H]4O)cc3)cc(=O)c2c(O)c1OC` (some centres unmarked) [Compound 1-26, 5-Hydroxy-6,7-dimethoxyflavone-4′-glucoside], in the assay with A549/SN-38-4 cell line, the “Resistance overcoming effect EC50” value was 0.14 µg/mL.
As to `O=c1cc(-c2ccc(O)c(O)c2)oc2cc(O)cc(O)c12` [Compound 1-8, 3′,4′,5,7-Tetrahydroxyflavone], the results for the EC50 in the assay on A549/SN-38-4 cell line and in the assay with MES-SA/Dx5 cell line were 0.46 µg/mL (≈ 1.61 µM) and above 1 µg/mL, respectively.
Turning to `CC(C)=CCc1c(-c2ccc(O)cc2O)oc2c3c(cc(O)c2c1=O)OC(C)(C)C=C3` [Compound 1-28, 4H,8H-Benzo[1,2-b:3,4-b′]dipyran-4-one,2-(2,4-dihydroxyphenyl)-5-hydroxy-8,8-dimethyl-3-(3-methyl-2-butenyl)], the “Resistance overcoming effect EC50” value in the assay with A549/SN-38-4 cell line was determined as 2.0 µg/mL.
With `COc1cccc(-c2cc(=O)c3cc(OC)ccc3o2)c1` [Compound 1-21, 3′,6-Dimethoxyflavone], the EC50 with A549/SN-38-4 cell line is 0.52 µg/mL (≈ 1.84 µM); with MES-SA/Dx5 cell line, above 1 µg/mL.
For `COc1cc(/C=C/C(=O)c2cc(Cl)cc(Br)c2O)cc(OC)c1OC` [Compound 3-10, 3′-Bromo-5′-Chloro-2′-hydroxy-3,4,5-trimethoxychalcone], the values for the concentration giving a half-maximal response (EC50) in the assay with A549/SN-38-4 cell line and with MES-SA/Dx5 cell line were 0.97 µg/mL (≈ 2.27 µM) and above 1 µg/mL, respectively.
With `O=c1c(O)c(-c2ccc(O)cc2)oc2cc(O)cc(O)c12` [Compound 1-7, 3,4′,5,7-Tetrahydroxyflavone], the EC50 in the assay on A549/SN-38-4 cell line is 0.13 µg/mL (≈ 0.454 µM); with MES-SA/Dx5 cell line, above 1 µg/mL.
In turn, `COc1cc2oc(-c3ccc(O)cc3O)c(CC=C(C)C)c(=O)c2c(O)c1C=CC(C)C` [Compound 1-29, 2′,4′,5-Trihydroxy-7-methoxy-6-(3-methyl-1-butenyl)-3-(3-methyl-2-butenyl)-flavone] gave an EC50 in the assay with A549/SN-38-4 cell line of 0.23 µg/mL (≈ 0.527 µM).
In the case of `COc1ccc(C2CC(=O)c3c(O)cc(O)cc3O2)cc1O` (centres unmarked) [Compound 2-1, 3′,5,7-Trihydroxy-4′-methoxyflavanone], the figures for the EC50 in the assay on A549/SN-38-4 cell line and with MES-SA/Dx5 cell line were 0.15 µg/mL (≈ 0.496 µM) and above 1 µg/mL, respectively.
For `COc1cc(O)c2c(c1)OC(c1ccc(O)cc1)CC2=O` (centres unmarked) [Compound 2-2, 4′,5-Dihydroxy-7-methoxyflavanone], in that order: 0.48 µg/mL (≈ 1.68 µM) and above 1 µg/mL.
For `COc1cc(O)c(C(=O)/C=C/c2cc(OC)c(OC)cc2OC)c(OC)c1` [Compound 3-6, 2′-Hydroxy-2,4,4′,5,6′-pentamethoxychalcone], in that order: 0.0074 µg/mL (≈ 0.0198 µM) and above 1 µg/mL.
For `COc1cc(O)c2c(=O)cc(-c3ccc(OC4O[C@H](CO)[C@@H](O)[C@H](O)[C@H]4O)cc3)oc2c1` (some centres unmarked) [Compound 1-27, 5-Hydroxy-7-methoxyflavone-4′-glucoside], the “Resistance overcoming effect EC50” value in the assay on A549/SN-38-4 cell line came to 0.042 µg/mL.
With `COc1ccc(/C=C/C(=O)c2ccccc2O)cc1OC` [Compound 3-3, 2′-Hydroxy-3,4-dimethoxychalcone], the concentration giving a half-maximal response (EC50) with A549/SN-38-4 cell line is 0.16 µg/mL (≈ 0.563 µM); in the assay with MES-SA/Dx5 cell line, above 1 µg/mL.
`COc1cc2oc(-c3ccccc3)cc(=O)c2c(O)c1O` [Compound 1-12, 5,6-Dihydroxy-7-methoxyflavone]: the EC50 was 0.074 µg/mL (≈ 0.26 µM) in the assay with A549/SN-38-4 cell line and above 1 µg/mL with MES-SA/Dx5 cell line.
For `COc1cc2oc(-c3ccc(O)cc3)cc(=O)c2c(O)c1OC` [Compound 1-19, 5,4′-Dihydroxy-6,7-dimethoxyflavone], the figures for the EC50 in the assay with A549/SN-38-4 cell line and in the assay on MES-SA/Dx5 cell line were 0.015 µg/mL (≈ 0.0477 µM) and above 1 µg/mL, respectively.
Turning to `O=c1cc(-c2ccc(O)cc2)oc2cc(OC3O[C@H](CO)[C@@H](O)[C@H](O)[C@H]3O)cc(O)c12` (some centres unmarked) [Compound 1-10, 4′,5-Dihydroxyflavone-7-glucoside], the “Resistance overcoming effect EC50” value in the assay with A549/SN-38-4 cell line is 0.17 µg/mL; in the assay with MES-SA/Dx5 cell line it was above 1.0 µg/mL.
As to `CCOc1cc(O)c(C(=O)/C=C/c2ccc(OCC)c(OCC)c2)c(OCC)c1` [Compound 3-4, 2′-Hydroxy-3,4,4′,6′-tetraethoxychalcone], the EC50 in the assay with A549/SN-38-4 cell line was 0.023 µg/mL (≈ 0.0574 µM); in the assay on MES-SA/Dx5 cell line it was above 1 µg/mL.
In the case of `COc1ccc(-c2cc(=O)c3c(OC)c(OC)c(OC)cc3o2)cc1O` [Compound 1-13, 3′-Hydroxy-4′,5,6,7-tetramethoxyflavone], the EC50 was 0.11 µg/mL (≈ 0.307 µM) with A549/SN-38-4 cell line and above 1 µg/mL in the assay on MES-SA/Dx5 cell line.
`COc1cc(O)c2c(=O)cc(-c3ccc(OC)c(OC)c3)oc2c1` [Compound 1-23, 5-Hydroxy-3′,4′,7-trimethoxyflavone] displayed an EC50 in the assay on A549/SN-38-4 cell line of 0.007 µg/mL (≈ 0.0213 µM).
As for `COc1ccc(-c2cc(=O)c3cc(OC)ccc3o2)c(OC)c1` [Compound 1-16, 2′,4′,6-Trimethoxyflavone], the EC50 in the assay on A549/SN-38-4 cell line is 0.098 µg/mL (≈ 0.314 µM); with MES-SA/Dx5 cell line, above 1 µg/mL.
`COc1cc(O)c(C(=O)/C=C/c2ccc(O)cc2)c(OC)c1` [Compound 3-1, 2′,4-Dihydroxy-4′,6′-dimethoxychalcone]: the EC50 in the assay with A549/SN-38-4 cell line is 0.04 µg/mL (≈ 0.133 µM); in the assay with MES-SA/Dx5 cell line, above 1 µg/mL.
`COc1cc(-c2cc(=O)c3c(O)cc(O)cc3o2)cc(OC)c1OC` [Compound 1-2, 5,7-Dihydroxy-3′,4′,5′-trimethoxyflavone]: the figures for the EC50 with A549/SN-38-4 cell line and in the assay on MES-SA/Dx5 cell line were 0.048 µg/mL (≈ 0.139 µM) and above 1 µg/mL, respectively.
As for `COc1ccc(/C=C/C(=O)c2c(O)cc(OC)cc2O)cc1` [Compound 3-8, 2′,6′-Dihydroxy-4,4′-dimethoxychalcone], the EC50 in the assay on A549/SN-38-4 cell line was 0.79 µg/mL (≈ 2.63 µM); in the assay on MES-SA/Dx5 cell line it was above 1 µg/mL.
As to `O=c1cc(-c2ccccc2)oc2cc(O)cc(O)c12` [Compound 1-3, 5,7-Dihydroxyflavone], the values for the EC50 in the assay with A549/SN-38-4 cell line and with MES-SA/Dx5 cell line were 0.1 µg/mL (≈ 0.393 µM) and above 1 µg/mL, respectively.
On to `COc1ccc(-c2coc3cc(O)cc(O)c3c2=O)cc1` [Compound 4-1, 5,7-Dihydroxy-4′-methoxyisoflavone], for which the EC50 with A549/SN-38-4 cell line is 0.33 µg/mL (≈ 1.16 µM); in the assay on MES-SA/Dx5 cell line, above 1 µg/mL.
Consider `COc1cc(O)c2c(=O)c(OC)c(-c3ccc(O)c(OC)c3)oc2c1` [Compound 1-22, 4′,5-Dihydroxy-3,3′,7-trimethoxyflavone], for which, in the assay with A549/SN-38-4 cell line, it took 0.046 µg/mL (≈ 0.134 µM) to reach a half-maximal effect (EC50).
Turning to `COc1ccc(-c2coc3cc(OC4O[C@H](CO)[C@@H](O)[C@H](O)[C@H]4O)cc(O)c3c2=O)cc1` (some centres unmarked) [Compound 4-2, 5-Hydroxy-4′-methoxyisoflavone-7-glucoside], the results for the “Resistance overcoming effect EC50” value in the assay with A549/SN-38-4 cell line and with MES-SA/Dx5 cell line were 0.84 µg/mL and above 1.0 µg/mL, respectively.
For the compound `COc1cc(-c2cc(=O)c3c(OC)c(OC)c(OC)c(OC)c3o2)c([N+](=O)[O-])cc1OC` [Compound 1-20, 2′-Nitro-4′,5,5′,6,7,8-hexamethoxyflavone], the EC50 was 0.75 µg/mL (≈ 1.68 µM) in the assay with A549/SN-38-4 cell line and above 1 µg/mL in the assay with MES-SA/Dx5 cell line.
Take `COc1ccc(O)c(C(=O)/C=C/c2cccc(OC)c2OC)c1` [Compound 3-9, 2′-Hydroxy-2,3,5′-trimethoxychalcone]: the EC50 is 0.94 µg/mL (≈ 2.99 µM) in the assay on A549/SN-38-4 cell line and above 1 µg/mL with MES-SA/Dx5 cell line.
As to `COc1ccc(/C=C/C(=O)c2ccccc2)cc1OC` [Compound 3-2, 3,4-Dimethoxychalcone], the results for the EC50 with A549/SN-38-4 cell line and in the assay with MES-SA/Dx5 cell line were 0.23 µg/mL (≈ 0.857 µM) and above 1 µg/mL, respectively.
Regarding `CC(C)=CC1Oc2cc(O)ccc2-c2oc3cc(O)c(C=CC(C)C)c(O)c3c(=O)c21` (centres unmarked) [Compound 5-1, 6H,7H-[1]benzopyrano[4,3-b][1]benzopyran-7-one,3,8,10-trihydroxy-9-(3-methyl-1-butenyl)-6-(2-methyl-1-propenyl)], the “Resistance overcoming effect EC50” value in the assay on A549/SN-38-4 cell line turned out to be 0.18 µg/mL.
